{
  "source": "patent US20250041175A1",
  "about": "“COMPOSITION FOR SMOOTHING THE SKIN AND/OR THE LIPS” (L V M H RECHERCHE, priority 2021, published 2025)",
  "assay": "Penetration of polyglycerols into the layers of the skin, 7T-MALDI-FT-ICR mass spectrometry imaging (MSI)",
  "type": "in vitro ADME",
  "conditions": "sections of human skin, preliminary study",
  "data": [
    {"substance": "polyglycerol-3", "values": [
      {"measurement": "depth of penetration at the surface layers of the skin (epidermis and superficial dermis)", "value": "reaches the superficial dermis very quickly"},
      {"measurement": "penetration speed of polyglycerols", "value": "penetrates rapidly"}
    ]},
    {"substance": "polyglycerol-4", "values": [
      {"measurement": "depth of penetration at the surface layers of the skin (epidermis and superficial dermis)", "value": "stationed in the superficial dermis"},
      {"measurement": "penetration speed of polyglycerols", "value": "penetrates more quickly"}
    ]},
    {"substance": "Polyglycerol-5", "values": [
      {"measurement": "depth of penetration at the surface layers of the skin (epidermis and superficial dermis)", "value": "penetrate less deeply than polyglycerol-3 or polyglycerol-4"}
    ]}
  ]
}
